The results in this text go back to ChEMBL document CHEMBL1140892, “Synthesis and evaluation of rifabutin analogs against Mycobacterium avium and H(37)Rv, MDR and NRP Mycobacterium tuberculosis” (Bioorg Med Chem, 2009).

≈ marks a conversion by molar mass, not a printed value. Calls of active or inactive are those of the source. Bounds are passed on as bounds.

The subject of experiment [1] is Mycobacterium tuberculosis. Put plainly: Antimycobacterial activity against Mycobacterium tuberculosis H37Rv after 7 days by resazurin method. The conditions noted are these: 168 h. The class given is functional.
Experiment [2] relates to Mycobacterium avium. Put plainly: Antimycobacterial activity against Mycobacterium avium 1581 at 0.4 mg/mL after 15 days relative to control. The class given is functional. The conditions noted are these: for inhibition at 400 µg/mL: 360 h.
In experiment [3] the test system is Mycobacterium tuberculosis. Put plainly: Antimycobacterial activity against Mycobacterium tuberculosis H37Rv infected in BALB/c mouse assessed as reduction of bacterial load in lungs at 25 mg/kg/day, intragastrically after 1 month relative to control. It counts as functional, organism-based.
Experiment [4] deals with Mycobacterium tuberculosis. Kind of experiment: Antimycobacterial activity against non-replicating Mycobacterium tuberculosis assessed as colony forming unit after 8 days. The class given is functional. The conditions noted are these: 192 h.
Experiment [5] has as its system Vero. Kind of experiment: Cytotoxicity against african green monkey Vero cells after 72 hrs by MTS assay. The conditions noted are these: Chlorocebus sabaeus. It counts as cell-based. (In general: Formazan colour is commonly taken as a measure of viable cells.)
For experiment [6], the system named is Mycobacterium tuberculosis. Put plainly: Antimycobacterial activity against non-replicating Mycobacterium tuberculosis assessed as luciferase activity incubated for 8 days measured after 24 hrs of incubation by low oxygen recover assay. It counts as functional.
Experiment [7] is described as follows: Selectivity index, ratio of IC50 for african green monkey Vero cells to MIC for non-replicating Mycobacterium tuberculosis. It counts as functional.
In experiment [8] the test system is Mycobacterium tuberculosis. Put plainly: Antimycobacterial activity against Mycobacterium tuberculosis H37Rv infected in BALB/c mouse assessed as reduction of bacterial load in lungs at 5 mg/kg/day, intragastrically after 1 month relative to control. The class given is functional, organism-based.
In experiment [9] the test system is Mycobacterium avium. Put plainly: Antimycobacterial activity against Mycobacterium avium 1581 at 0.2 mg/mL after 15 days relative to control. It counts as functional. The note with it: 360 h.
Experiment [10] deals with Mycobacterium avium. Kind of experiment: Antimycobacterial activity against Mycobacterium avium 1581 at 0.1 mg/mL after 15 days relative to control. The class given is functional. The note with it: 360 h.
Experiment [11] deals with Mycobacterium tuberculosis. Kind of experiment: Antimycobacterial activity against Mycobacterium tuberculosis H37Rv infected in BALB/c mouse assessed as lungs affected by pneumonia at 25 mg/kg/day, intragastrically after 1 month by histopathology study relative to control. The class given is functional, organism-based.

For the compound `CO[C@H]1/C=C/O[C@@]2(C)Oc3c(C)c(O)c4c(c3[C@H]2O)C2=NC3(CCN(CC(C)C)CC3)NC2=C(NC(=O)/C(C)=C\C=C\[C@H](C)[C@H](O)[C@@H](C)[C@@H](O)[C@@H](C)[C@H](O)[C@@H]1C)C4=O`, the MIC in experiment [1] amounted to 0.2 µg/mL (≈ 0.248 µM). Besides, in [2], the result was inactive.
For `CO[C@H]1/C=C/O[C@@]2(C)Oc3c(C)c(O)c4c(c3C2=O)C2=NC3(CCN(CC(C)C)CC3)N(C(C)=O)C2=C(NC(=O)/C(C)=C\C=C\[C@H](C)[C@H](O)[C@@H](C)[C@@H](O)[C@@H](C)[C@H](OC(C)=O)[C@@H]1C)C4=O`, the outcome in [3] and in experiment [8] was Active. Further, the MBC in experiment [4] turned out to be 0.18 µM (≈ 0.16 µg/mL). In addition, the MIC in [1] was below 0.013 µg/mL; in experiment [6] it was 0.28 µM (≈ 0.249 µg/mL). This compound displayed an IC50 in [5] above 92.7 µM. Further, the Selectivity ratio in experiment [7] was above 331. Besides, in [9], the inhibition at 200 µg/mL was above 99%. The inhibition at 400 µg/mL in experiment [2] was above 99%.
`CO[C@H]1/C=C/O[C@@]2(C)Oc3c(C)c(O)c4c(c3C2=O)C2=NC3(CC[N+]([O-])(CC(C)C)CC3)NC2=C(NC(=O)/C(C)=C\C=C\[C@H](C)[C@H](O)[C@@H](C)[C@@H](O)[C@@H](C)[C@H](O)[C@@H]1C)C4=O` (stereo partly specified): the MIC in experiment [1] is 0.6 µg/mL (≈ 0.731 µM). Moreover, the result in experiment [2] was inactive.
With `CO[C@H]1/C=C/O[C@@]2(C)Oc3c(C)c(O)c4c(c3C2=O)C2=NC3(CCN(CC(C)C)CC3)NC2=C(NC(=O)/C(C)=C\C=C\[C@H](C)[C@H](O)[C@@H](C)[C@@H](O)[C@@H](C)[C@H](OC(C)=O)[C@@H]1C)C4=O` [RIFABUTIN], the MBC in experiment [4] was 0.05 µM (≈ 0.0424 µg/mL). Further, the figures for the MIC in [1] and in experiment [6] were below 0.013 µg/mL and 0.08 µM (≈ 0.0678 µg/mL), respectively. Further, the IC50 in experiment [5] was above 46.6 µM. The compound further returned an inhibition at 100 µg/mL in [10] above 99%. For the same compound, the Selectivity ratio in experiment [7] is recorded as above 582. This compound gave an inhibition at 200 µg/mL in experiment [9] above 99%.
Take `CO[C@H]1/C=C/O[C@@]2(C)Oc3c(C)c(O)c4c(O)c(c(/C=N/N5CCN(C)CC5)c(O)c4c3C2=O)NC(=O)/C(C)=C\C=C\[C@H](C)[C@H](O)[C@@H](C)[C@@H](O)[C@@H](C)[C@H](OC(C)=O)[C@@H]1C` [RIFAMPIN]: in [4], the MBC is 0.39 µM (≈ 0.321 µg/mL). In experiment [5], this compound yielded an IC50 of 138 µM. The MIC in experiment [6] turned out to be 1.41 µM (≈ 1.16 µg/mL). Further, in experiment [7], the Selectivity ratio stood at 98.
On to `CCCCCCCCCCCCCCCC(=O)N1C2=C3NC(=O)/C(C)=C\C=C\[C@H](C)[C@H](O)[C@@H](C)[C@@H](O)[C@@H](C)[C@H](OC(C)=O)[C@H](C)[C@@H](OC)/C=C/O[C@@]4(C)Oc5c(C)c(O)c(c(c5C4=O)C2=NC12CCN(CC(C)C)CC2)C3=O`, for which, in experiment [4], the MBC was 0.14 µM (≈ 0.152 µg/mL). In addition, the minimal inhibitory concentration (MIC) came out at 0.1 µg/mL (≈ 0.0921 µM) in experiment [1] and 1.08 µM (≈ 1.17 µg/mL) in experiment [6]. Besides, the IC50 in [5] is above 34.8 µM. Besides, in experiment [7], the Selectivity ratio is above 32.
On to `CO[C@H]1/C=C/O[C@@]2(C)Oc3c(C)c(O)c4c(c3[C@H]2O)C2=NC3(CCN(CC(C)C)CC3)N(C(C)=O)C2=C(NC(=O)/C(C)=C\C=C\[C@H](C)[C@H](O)[C@@H](C)[C@@H](O)[C@@H](C)[C@H](OC(C)=O)[C@@H]1C)C4=O`, for which, in [1], the lowest concentration to inhibit growth (MIC) was 0.1 µg/mL (≈ 0.112 µM). In experiment [9], this compound gave an inhibition at 200 µg/mL of 54%. This compound also gave an inhibition at 400 µg/mL in experiment [2] above 99%.
Take `C=CCCCCCCCCC(=O)N1C2=C3NC(=O)/C(C)=C\C=C\[C@H](C)[C@H](O)[C@@H](C)[C@@H](O)[C@@H](C)[C@H](OC(C)=O)[C@H](C)[C@@H](OC)/C=C/O[C@@]4(C)Oc5c(C)c(O)c(c(c5C4=O)C2=NC12CCN(CC(C)C)CC2)C3=O`: the result in experiment [3], in [11] and in experiment [8] was inactive. Further, in experiment [4], the MBC was 0.08 µM (≈ 0.0811 µg/mL). Further, the values for the MIC in [1] and in experiment [6] were 0.1 µg/mL (≈ 0.0987 µM) and 0.08 µM (≈ 0.0811 µg/mL), respectively. Also, in experiment [5], 36.9 µM corresponded to half-maximal inhibition (IC50). Further, the Selectivity ratio in experiment [7] is reported as 462. In experiment [9], this compound returned an inhibition at 200 µg/mL of 60%. For the same compound, the inhibition at 400 µg/mL in experiment [2] is above 99%.
In [1], `CO[C@H]1/C=C/O[C@@]2(C)Oc3c(C)c(O)c4c(c3[C@H]2O)C2=NC3(CCN(CC(C)C)CC3)NC2=C(NC(=O)/C(C)=C\C=C\[C@H](C)[C@H](O)[C@@H](C)[C@@H](O)[C@@H](C)[C@H](OC(C)=O)[C@@H]1C)C4=O` [RIFABUTINOL] gave an MIC below 0.05 µg/mL. For the same compound, the inhibition at 200 µg/mL in experiment [9] stood at 86%. Further, the inhibition at 400 µg/mL in [2] is above 99%.
`CO[C@H]1/C=C/O[C@@]2(C)Oc3c(C)c(O)c4c(c3[C@H]2O)C2=NC3(CC[N+]([O-])(CC(C)C)CC3)NC2=C(NC(=O)/C(C)=C\C=C\[C@H](C)[C@H](O)[C@@H](C)[C@@H](O)[C@@H](C)[C@H](OC(C)=O)[C@@H]1C)C4=O` (stereo partly specified) gave an MIC in experiment [1] of 0.6 µg/mL (≈ 0.694 µM). The compound also showed an inhibition at 200 µg/mL in experiment [9] of 44%. For the same compound, 400 µg/mL produced 53% inhibition in experiment [2].
On to `CO[C@H]1/C=C/O[C@@]2(C)Oc3c(C)c(O)c4c(c3C2=O)C2=NC3(CC[N+]([O-])(CC(C)C)CC3)NC2=C(NC(=O)/C(C)=C\C=C\[C@H](C)[C@H](O)[C@@H](C)[C@@H](O)[C@@H](C)[C@H](OC(C)=O)[C@@H]1C)C4=O` (stereo partly specified), for which the MBC in experiment [4] stood at 0.28 µM (≈ 0.242 µg/mL). In addition, the MIC in experiment [1] turned out to be 0.2 µg/mL (≈ 0.232 µM); in experiment [6] it was 0.44 µM (≈ 0.38 µg/mL). For the same compound, the IC50 in [5] is above 35.8 µM. In addition, the Selectivity ratio in [7] is above 82. Besides, in experiment [2], the result was inactive.
As for `CO[C@H]1/C=C/O[C@@]2(C)Oc3c(C)c(O)c4c(c3C2=O)C2=NC3(CCN(CC(C)C)CC3)NC2=C(NC(=O)/C(C)=C\C=C\[C@H](C)[C@H](O)[C@@H](C)[C@@H](O)[C@@H](C)[C@H](O)[C@@H]1C)C4=O`, the MBC in [4] turned out to be 0.18 µM (≈ 0.145 µg/mL). For the same compound, the figures for the minimal inhibitory concentration (MIC) in experiment [1] and in [6] were 0.025 µg/mL (≈ 0.0311 µM) and 0.29 µM (≈ 0.233 µg/mL), respectively. The compound also showed an IC50 in [5] above 46.6 µM. Besides, the Selectivity ratio in experiment [7] is reported as above 161. In experiment [9], this compound gave an inhibition at 200 µg/mL of 91%. Also, the inhibition at 400 µg/mL in [2] was above 99%.

One may read the MIC as the smallest concentration in the dilution series that meets the test's criterion for growth inhibition. By MBC is commonly meant the lowest tested concentration that kills the bacteria rather than only halting them. The term IC50 denotes the concentration needed to halve the response being measured. By inhibition is commonly meant the percentage by which the read-out fell short of the control.
